The target in assay [1] is T1, Receptor-interacting serine/threonine-protein kinase 1 (Homo sapiens, UniProt Q13546).
T1 sequence (Q13546 whole entry): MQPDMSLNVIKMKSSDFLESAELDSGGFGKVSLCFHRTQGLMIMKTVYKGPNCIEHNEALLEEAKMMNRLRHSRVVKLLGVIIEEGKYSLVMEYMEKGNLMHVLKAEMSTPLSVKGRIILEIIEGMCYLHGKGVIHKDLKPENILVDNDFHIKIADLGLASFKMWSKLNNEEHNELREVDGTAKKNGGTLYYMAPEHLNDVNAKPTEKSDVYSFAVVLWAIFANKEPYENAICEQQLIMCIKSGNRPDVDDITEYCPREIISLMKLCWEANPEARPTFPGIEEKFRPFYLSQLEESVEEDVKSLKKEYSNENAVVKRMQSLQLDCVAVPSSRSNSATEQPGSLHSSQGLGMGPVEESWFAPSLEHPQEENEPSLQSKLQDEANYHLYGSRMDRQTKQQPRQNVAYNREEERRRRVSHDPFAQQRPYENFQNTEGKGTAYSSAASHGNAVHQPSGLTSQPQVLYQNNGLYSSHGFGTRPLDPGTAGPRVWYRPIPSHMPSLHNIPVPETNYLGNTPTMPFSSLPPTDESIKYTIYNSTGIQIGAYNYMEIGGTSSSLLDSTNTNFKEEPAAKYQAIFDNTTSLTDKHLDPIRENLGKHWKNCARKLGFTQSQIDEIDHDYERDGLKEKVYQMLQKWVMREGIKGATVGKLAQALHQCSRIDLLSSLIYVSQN
Briefly: Inhibition of human RIPK1 incubated for 40 min in presence of ATP by ADP-Glo luminescence kinase assay.

For assay [2], the system named is U-937. Briefly: Anti-necroptotic activity in human U-937 cells assessed as decrease in phosphorylation of MLKL level preincubated with PMA and LPS followed by compound addition and measured after 9 hrs by western blot analysis. It counts as functional, cell-based. The settings on record: DDE = dose-dependent effect.
In assay [3] the test system is U-937. As to the kind of experiment: Anti-necroptotic activity in human U-937 cells assessed as inhibition of LPS/Z-VAD-fmk (LSZ)-induced necroptosis preincubated with PMA followed by compound addition and measured after 9 hrs by CCK8 assay. It counts as functional, cell-based. The settings on record: DDE = dose-dependent effect.

As to `CCC(C)(C)C(=O)N(O)Cc1ccccc1`, the IC50 in assay [1] is 0.298 µM.

With `Cn1ccc2ccc(C(=O)N3CCC4(CC3)CCN(Cc3cc(F)ccc3F)C4=O)cc21`, the Activity result in the assay with U-937 [2] and in the assay on U-937 [3] was “Dde” throughout.

In the case of `CN1C(=O)C(Cc2c[nH]c3ccccc23)NC1=S` (stereo not given) [NECROSTATIN], the IC50 in assay [1] is 1.14 µM.

As for `O=C(c1ccccc1)N1CCC2(CC1)CN(Cc1ccccc1)C2=O`, in assay [1], the IC50 was determined as 1.01 µM.

For the origin of these results see ChEMBL document CHEMBL5143603, “Discovery of novel 2,8-diazaspiro[4.5]decan-1-one derivatives as potent RIPK1 kinase inhibitors” (Bioorg Med Chem, 2022).
